Data as given in patent publication US20040152903A1, “6-chloro-3-pyridylmethylpropylamine derivatives, preparation process thereof and bactericides” (priority 2004, published 2004).

Tested on: Botrytis cinerea
Experiment: Antifungal activity test (PDA plate, hypha extension inhibition)
Format: cell-based
Conditions: 1.6 ppm in PDA culture medium
Experimental: (Antifungal Activity Test against Various Pathogenic Fungi) For each of the compounds I-1 to 27 of the present invention and the comparative compounds (a) to (d), (m-1) and (m-3), 20 mg was weighed and dissolved in 2 ml of dimethylsulfoxide, and a double dilution row in 10 steps was prepared by further using dimethylsulfoxide. A 0.6 ml portion of these solutions was each added to 60 ml of a PDA culture medium (potato-dextrose-agar culture medium) at about 60° C., they were well mixed in a 100 ml Erlenmeyer flask, the solution was poured into a schale and was solidified, the plate culture media containing the compounds according to the present invention with final concentrations of 100, 50.0, 25.0, 12.5, 6.3, 3.2, 1.6, 0.8, 0.4 and 0.2 mg/l were prepared. On the other hand, the specimen bacteria cultured on the plate culture media beforehand was punched by a 4 mm diameter cork borer, and was inoculated on the plate culture media containing the aforementioned chemicals. After the inoculation, the bacteria were cultured at the optimum growth temperature of each bacterium for 1 to 7 days (for this optimum growth temperature, LIST OF CULTURES 1996 Microorganisms 10th edition published by Fermentation Research Institute (Foundation) can be referred to.), and the growth of the bacteria was measured by the diameter of a colony. […] R=100(dc−dt)/dc (Equation 3) [wherein each symbol is shown as follows: R=Hypha extension inhibition rate (%), dc=Diameter of colony on no-treated plate, dt=Diameter of colony on chemical-treated plate.] The results obtained above was evaluated in 5 steps in accordance with the following examination scale. <Growth Inhibition> 5: Hypha extension inhibition rate of 90% or more 4: Hypha extension inhibition rate of from 70% to less than 90% 3: […] 2: […] In addition, the abbreviations in Table 10 are as follows: B.c: Botrytis cinerea

For `CC(Cc1ccc(C(F)(F)F)c(F)c1F)CN(C)Cc1ccc(Cl)nc1` (centres unmarked) [Compound I-10], the “Growth Inhibition B.c (1.6)” value was 5 (Hypha extension inhibition rate of 90% or more).

With `CC(Cc1ccc2c(c1)OC(F)(F)O2)CN(C)Cc1ccc(Cl)nc1` (centres unmarked) [Compound I-24] the “Growth Inhibition B.c (1.6)” value was 4 (Hypha extension inhibition rate of from 70% to less than 90%).
